Data reported in patent US7319000B1, “Compositions and methods for eliciting immune or anti-infective responses” (priority 1992, dated 2008).
Where two headings read alike, the source gives them in different places. Ends that are not written are not given here.

Legend:
[1] = test system: P815 target cells (H-2d)
[2] = test system: spleen cells (CTL response to R15K); experiment: CTL activity of spleen cells after a single id footpad injection (FIG. 4)
[3] = test system: HIV-1 IIIB infection of human cells; type: cell-based
[4] = test system: HIV-1 infection of primary human T cells; experiment: HIV-1 infection of primary human T cells, reverse transcriptase assay; type: cell-based; settings: peptide at 1 μg/ml; IIIB strain; RT activity after 9 days; FIG. 8
[5] = test system: 3A9 target cells (H-2k); type: in vivo, Balb/c mice; settings: effector cells: No Treatment
[6] = test system: BALB/c mice; experiment: Anti-peptide antibody response (ELISA) in BALB/c mice immunized with peptide multimers; type: in vivo; set-up: key to Antipeptide Antibody Reactivity to Analogous Peptide: −: cpm values are corrected and categorized according to unrelated antigen response in vitro.; •: Not determined.; +: cpm values are corrected and categorized according to unrelated antigen response in vitro.; ++: cpm values are corrected and categorized according to unrelated antigen response in vitro.; +++: cpm values are corrected and categorized according to unrelated antigen response in vitro.; ++++: cpm values are corrected and categorized according to unrelated antigen response in vitro; settings: for Antipeptide Antibody Reactivity to Analogous Peptide: antibody raised in Balb/C mice, ELISA end point; for anti-peptide antibody response (in words): high molecular weight forms of the peptides
[7] = test system: PLN cells from B6C3F1 mice; experiment: In vitro proliferation (3H-TdR) of PLN cells from immunized B6C3 F1 mice; type: in vivo; set-up: key to In Vitro Proliferation of PLN Cells from B6C3F1, Analogous Peptide / In Vitro Proliferation of PLN Cells from B6C3F1, GP 160: −: cpm values are corrected and categorized according to unrelated antigen response in vitro.; •: Not determined.; +: cpm values are corrected and categorized according to unrelated antigen response in vitro.; ++: cpm values are corrected and categorized according to unrelated antigen response in vitro.; +++: cpm values are corrected and categorized according to unrelated antigen response in vitro.; ++++: cpm values are corrected and categorized according to unrelated antigen response in vitro; settings: for In Vitro Proliferation of PLN Cells from B6C3F1, GP 160: in vitro antigen: GP 160; for In Vitro Proliferation of PLN Cells from B6C3F1, Analogous Peptide: in vitro antigen: analogous peptide
[8] = test system: PLN cells from A SW × Balb/c F1 mice; experiment: In vitro proliferation (3H-TdR) of PLN cells from immunized A.SW x BALB/c F1 mice; type: in vivo, A.SWXBALB/C F1 mice; set-up: key: −: cpm values are corrected and categorized according to unrelated antigen response in vitro.; •: Not determined.; +: cpm values are corrected and categorized according to unrelated antigen response in vitro.; ++: cpm values are corrected and categorized according to unrelated antigen response in vitro.; +++: cpm values are corrected and categorized according to unrelated antigen response in vitro.; ++++: cpm values are corrected and categorized according to unrelated antigen response in vitro; settings: for In Vitro Proliferation of PLN Cells from A SW × Balb/c F1, GP 160: in vitro antigen: GP 160; for In Vitro Proliferation of PLN Cells from A SW × Balb/c F1, Analogous Peptide: in vitro antigen: analogous peptide
[9] = test system: PBMCs of immunized rhesus monkeys; experiment: PBMC proliferation in rhesus monkeys immunized with a mixture of eight synthetic peptides; type: in vivo; set-up: key to T-cell Proliferation Responses: —: no detectable response; 1+: poor response; 2+: good response; 3+: better response; 4+: best response; 6+: best response; settings: for T-cell Proliferation Responses: PBMC response to the individual peptide or gp160; for PBMC proliferative responses (in words): three rhesus monkeys, monitored for 32 weeks
Method: In the present studies, three rhesus monkeys (#7, #23 and #283C) were immunized subcutaneously with 1 ml (0.1 ml/site) of a mixture of eight synthetic peptides (300·g of each peptide in sterile water) emulsified in complete Freund's adjuvant at 1:1 ratio. […] At 3 and 7 weeks after the primary immunization, two booster injections of the peptide mixture (150·g of each peptide in sterile water) emulsified in incomplete Freund's adjuvant were given to each monkey. Monkey #7 was terminated after […], for health reasons unrelated to the study, while the remaining two monkeys (#283C and #23) received one additional booster injection at 25 weeks.
At two week intervals following the first immunization of each animal, 15 ml of whole heparinized blood was collected by venous puncture. The peripheral blood mononuclear cells (PBMC) were separated by standard ficoll-hypaque centrifugation and employed in proliferation assays. The PBMCs were monitored every two weeks for a period of 32 weeks for proliferative responses against individual peptides and recombinant gp160.

[10] = disulfide (di-Cys) polymeric form

Compound: CC[C@H](C)[C@H](NC(=O)[C@@H](NC(=O)[C@@H](NC(=O)[C@H](Cc1ccccc1)NC(=O)[C@H](C)NC(=O)[C@H](CCCNC(=N)N)NC(=O)CNC(=O)[C@@H]1CCCN1C(=O)CNC(=O)[C@H](CCCNC(=N)N)NC(=O)[C@H](CCC(N)=O)NC(=O)[C@@H](NC(=O)[C@@H](N)CCCNC(=N)N)[C@@H](C)CC)C(C)C)[C@@H](C)O)C(=O)NCC(=O)N[C@@H](CCCCN)C(=O)O [Peptide R15K]
- effect of anti-CD4 MAbs plus complement, or complement alone, on CTL cytotoxicity ([1]; effectors from mice immunized with monomeric peptide, FIG. 3A): no significant effect
- effect of anti-CD8 MAbs and rabbit complement on CTL cytotoxicity ([1]; effectors from mice immunized with monomeric peptide, peptide treated or env expressing targets, FIG. 3A): abolished the cytotoxicity

Compound: CRIKQIINMWQGVGKAMYA [Peptide C19A]
- CTL-inducing activity of helper T-cell peptide injected alone [2]: lacked CTL-inducing activity

Compound: GIAIGPGRTLYAREK [Peptide D27, V3 loop peptide, strain NY-5]
- % RT INHIBITION [3]: 0%

Compound: GIHFGPGQALYTTGI [Peptide D33, V3 loop peptide, strain MAL]
- % RT INHIBITION [3]: 0%

Compound: HGEFAPGNYPALWSYA [Peptide B105]
- in vivo CTL response against unmodified free synthetic peptide ([1]; same immunization protocol as Example 5): successfully generated

Compound: NNTRKSITKGPGRVIYATGQIIGD [Peptide D26, V3 loop peptide, strain RF]
- % RT INHIBITION [3]: 72.2%

Compound: RAFVTIGK [Peptide R8K]
- inhibition of HIV-1 infection of primary human T cells [4]: 66%

Compound: RIHIGPGARFLTTKN [Peptide D39, V3 loop peptide, strain MN(Y-L)]
- % RT INHIBITION [3]: 73.8%

Compound: RIHIGPGRAFFTTKN [Peptide D40, V3 loop peptide, strain MN(Y-F)]
- % RT INHIBITION [3]: 62.8%

Compound: RIHIGPGRAFYTTKN [Peptide D24, V3 loop peptide, strain MN]
- % RT INHIBITION [3]: 22.1%

Compound: RTPTGLGQSLYTTRS [Peptide D38, V3 loop peptide, strain ELI]
- % RT INHIBITION [3]: 33.7%

Compound: RVTLGPGRVWYTTGE [Peptide D29, V3 loop peptide, strain CDC4]
- % RT INHIBITION [3]: 0%

Compound: SIHIGPGRAFYATGD [Peptide D30, V3 loop peptide, strain SC]
- % RT INHIBITION [3]: 54.3%

Compound: SIRIGPGKVFTAKGG [Peptide D31, V3 loop peptide, strain Z3]
- % RT INHIBITION [3]: 0%

Compound: SISIGPGRAFFATTD [Peptide D34, V3 loop peptide, strain Z321]
- % RT INHIBITION [3]: 0%

Compound: SITKGPGRVIYATGQ [Peptide D28, V3 loop peptide, strain RF]
- % RT INHIBITION [3]: 0%

Compound: SIYIGPGRAFHTTGR [Peptide D32, V3 loop peptide, strain SF2]
- % RT INHIBITION [3]: 0%

Compound: SLSIGPGRAPRTREI [Peptide D25, V3 loop peptide, strain WMJ-3]
- % RT INHIBITION [3]: 42.4%

Compound: STPIGLGQALYTTRG [Peptide D35, V3 loop peptide, strain Z6]
- % RT INHIBITION [3]: 30.3%

Compound: STPIGLGQALYTTRI [Peptide D37, V3 loop peptide, strain JY1]
- % RT INHIBITION [3]: 0%

Compound: TYQRTRALVTG [Peptide B106, free synthetic peptide from Influenza virus nucleoprotein (aa 147-158)]
- % Specific Lysis ([5]; target 3A9 (MHC-mis-matched, H-2k), E:T 80:1): 0%
- % Specific Lysis ([5]; target 3A9 (MHC-mis-matched, H-2k), E:T 160:1): 0%
- % Specific Lysis ([5]; target 3A9 + B106, E:T 20:1): 0%
- % Specific Lysis ([5]; target 3A9 + B106, E:T 40:1): 0%
- % Specific Lysis ([5]; target 3A9 + B106, E:T 80:1): 0%
- % Specific Lysis ([5]; target 3A9 + B106, E:T 160:1): 0%

Compound: VYYGVPVWKEA [Peptide 104]
- Antipeptide Antibody Reactivity to Analogous Peptide [6]: •
- anti-peptide antibody response (in words) [6]: very low to negligible amounts of anti-peptide antibodies
- In Vitro Proliferation of PLN Cells from B6C3F1, GP 160 [7]: ++
- In Vitro Proliferation of PLN Cells from B6C3F1, Analogous Peptide [7]: ++++
- In Vitro Proliferation of PLN Cells from A SW × Balb/c F1, GP 160 [8]: +
- In Vitro Proliferation of PLN Cells from A SW × Balb/c F1, Analogous Peptide [8]: +++
- T-cell Proliferation Responses ([9]; Rhesus Monkey #7): 4+
- T-cell Proliferation Responses ([9]; Rhesus Monkey #23): 2+
- T-cell Proliferation Responses ([9]; Rhesus Monkey #283C): 4+
- PBMC proliferative responses (in words) [9]: good proliferative responses

Compound: YLRDQQLLGIWGC [Peptide 61, gp160 aa 586-598]
- Antipeptide Antibody Reactivity to Analogous Peptide [6]: −
- anti-peptide antibody production (in words) [6, 10]: do not stimulate anti-peptide antibody production
- anti-peptide antibody response (in words) [6]: very low to negligible amounts of anti-peptide antibodies
- T cell response against the corresponding peptide and native HIV envelope protein gp160 (in words) [7, 10]: strong T cell response
- In Vitro Proliferation of PLN Cells from B6C3F1, GP 160 [7]: +
- In Vitro Proliferation of PLN Cells from B6C3F1, Analogous Peptide [7]: ++
- In Vitro Proliferation of PLN Cells from A SW × Balb/c F1, GP 160 [8]: ++
- In Vitro Proliferation of PLN Cells from A SW × Balb/c F1, Analogous Peptide [8]: ++
- T-cell Proliferation Responses ([9]; Rhesus Monkey #7): —
- T-cell Proliferation Responses ([9]; Rhesus Monkey #23): 3+
- T-cell Proliferation Responses ([9]; Rhesus Monkey #283C): 2+
- PBMC proliferative responses (in words) [9]: Two of the three rhesus monkey-derived PBMC preparations also showed good proliferative responses

Compound: YNKRKRIHIGPGRAFYTTKNNIGC [Peptide D23, V3 loop peptide, strain MN]
- % RT INHIBITION [3]: 98.8%
